# Test results: patent US9266880B2, “Substituted azaindazole compounds” (Bristol-Myers Squibb Company, priority 2010, dated 2016)
# Target: Human CYP17 (Homo sapiens (Human), UniProt P05093)
# Experiment: CYP17 Total SPA Assay
# Assay type: biochemical
# Conditions: microsomes from HEK2 cells stably transfected with CYP17; 3H-Pregnenolone 1 uM, NADPH 2 mM; 45 minutes at room temperature
# Protocol: The assays were performed in U-bottom 384-well optiplates. The final assay volume was 15 μl prepared from 7.5 μl additions of microsomes (prepared as a high-speed pellet from homogenized HEK2 cells stably transfected with CYP17), substrates (3H— Pregnenolone and NADPH) and test compounds in assay buffer (50 mM Potassium phosphate pH 7.2, 10% glycerol). The reaction was initiated by the combination of the microsomes and substrates in wells containing compound. The reaction was incubated at room temperature for 45 minutes and terminated by adding 7.5 μl of 0.2N HCl to each well. Following an incubation period of 10 minutes, anti-DHEA-coated SPA beads were added to the terminated reaction. The plate was sealed and incubated overnight with shaking at 4° C. The beads were allowed to settle in the plate for 1 hour and the plate read on a TOPCOUNT® (Perkin-Elmer) plate reader.
# Inhibition data were calculated by comparison to no enzyme control reactions for 100% inhibition and vehicle-only reactions for 0% inhibition. The final concentration of reagents in the assays are NADPH, 2 mM; 3H-Pregnenolone, 1 uM; microsomes, 1.25 ug/ml; Anti-DHEA-SPA beads (0.125 mg/well) in 0.5% Triton X-100 and DMSO, 0.05%. Dose response curves were generated to determine the concentration required inhibiting 50% of enzyme activity (IC50). Compounds were dissolved at 10 mM in dimethylsulfoxide (DMSO) and evaluated at eleven concentrations, each in duplicate. IC50 values were derived by non-linear regression analysis.
# Human CYP17, sequence (P05093 whole entry): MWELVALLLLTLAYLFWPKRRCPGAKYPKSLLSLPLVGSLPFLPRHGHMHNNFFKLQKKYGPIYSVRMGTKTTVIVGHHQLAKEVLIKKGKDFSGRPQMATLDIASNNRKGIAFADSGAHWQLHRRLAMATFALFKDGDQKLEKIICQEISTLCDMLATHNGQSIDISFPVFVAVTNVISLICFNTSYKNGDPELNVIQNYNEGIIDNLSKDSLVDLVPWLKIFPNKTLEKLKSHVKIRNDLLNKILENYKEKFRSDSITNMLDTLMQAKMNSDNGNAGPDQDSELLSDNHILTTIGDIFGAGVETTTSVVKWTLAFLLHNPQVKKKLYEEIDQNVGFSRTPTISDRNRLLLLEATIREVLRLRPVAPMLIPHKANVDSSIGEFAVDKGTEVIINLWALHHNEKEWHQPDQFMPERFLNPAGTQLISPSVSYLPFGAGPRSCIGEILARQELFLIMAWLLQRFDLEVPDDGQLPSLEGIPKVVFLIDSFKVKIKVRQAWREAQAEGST
row,Structure (SMILES),IC50
1,"NS(=O)(=O)c1cccc(-n2ncc3c(-c4cncc5ncccc45)ccnc32)c1 [Example 5, 3-(4-(1,7-Naphthyridin-5-yl)-1H-pyrazolo[3,4-b]pyridin-1-yl)benzenesulfonamide]",206 nM
2,"Cn1cncc1-c1ccnc2c1cnn2-c1cccc(S(N)(=O)=O)c1 [Example 6, 3-(4-(1-Methyl-1H-imidazol-5-yl)-1H-pyrazolo[3,4-b]pyridin-1-yl)benzenesulfonamide]",271 nM
3,"Fc1ccc(-n2ncc3c(-n4ccnc4)ccnc32)cc1 [Example 2, 1-(4-Fluorophenyl)-4-(1H-imidazol-1-yl)-1H-pyrazolo[3,4-b]pyridine]",640 nM
4,"Fc1ccc(-n2ncc3c(-c4cncc5ccccc45)ccnc32)cc1 [Example 1, 4-(1-(4-Fluorophenyl)-1H-pyrazolo[3,4-b]pyridin-4-yl)isoquinoline]",128 nM

# Now those with a lower IC50, led by results:
row,IC50,Structure (SMILES)
1,41 nM,"Fc1ccc(-n2ncc3c(-c4cncc5ncccc45)ccnc32)cc1 [Example 3, 5-(1-(4-Fluorophenyl)-1H-pyrazolo[3,4-b]pyridin-4-yl)-1,7-naphthyridine]"
2,76 nM,"Fc1ccc(-n2ncc3c(-c4cncn5cccc45)ccnc32)c(F)c1 [Example 8, 1-(2,4-Difluorophenyl)-4-(pyrrolo[1,2-c]pyrimidin-4-yl)-1H-pyrazolo[3,4-b]pyridine]"
3,50 nM,"Cn1cncc1-c1ccnc2c1cnn2-c1ccc(F)cc1 [Example 4, 1-(4-Fluorophenyl)-4-(1-methyl-1H-imidazol-5-yl)-1H-pyrazolo[3,4-b]pyridine]"
4,23 nM,"NS(=O)(=O)c1cccc(-n2ncc3c(-c4cncc5ccccc45)ccnc32)c1 [Example 7, 3-(4-(Isoquinolin-4-yl)-1H-pyrazolo[3,4-b]pyridin-1-yl)benzenesulfonamide]"
